Experimental data taken from US8357733B2, “Processes for making silane, hydrophobated silica, silica masterbatch and rubber products” (Industrias Negromex, S.A. de C.V., priority 2008, dated 2013).

Columns and labels:
[1] = Solubility of silanes in water-isopropanol mixtures; assay type: physicochemical; conditions: for Soluble?: water-isopropanol, 96.0 % water (wt.); for Water solubility: comparison methoxysilane vs ethoxysilane, see Table 4
Description: An aqueous solution of silane was prepared by charging to a vessel 4 grams of isopropanol, 0.7 grams of acetic acid and then 1.57 grams (4% by wt silica) of mercapto Propyl trimethoxysilane (Silquest A189). The mixture was then stirred vigorously at room temperature while 96 grams of water was slowly added. The mixture was then stirred for a further 15 minutes until the solution cleared.
The following experiments were conducted to examine the solubility of various silane coupling agents.

[2] = as above; assay type: physicochemical; conditions: for Soluble?: water-isopropanol

With `CO[Si](CCCSSCCC[Si](OC)(OC)OC)(OC)OC` [TMSPD, bis-(3-trimethoxysilylpropyl)-disulfide] the “Soluble?” value ([1]; pH 4.1) was “soluble”, the “Soluble?” value ([1]; pH 4.1, listed as TMSPD (Present invention)) was “Yes” and the “Solubility in 70/30 water/isopropanol mixture” value ([2]; TMSPD prepared using the Pletka process, no unusual precautions to purify the methanol) was “insoluble”.
For `CCO[Si](CCCS)(OCC)OCC` [MPTES, mercaptopropyltriethoxysilane], the Water solubility [1] was “insoluble” and the “Soluble?” value ([2]; 63.2 % water (wt.), pH 3.5-4.0) was “insoluble and No”.
With `CO[Si](CCCS)(OC)OC` [MPTMS, mercaptopropyl trimethoxysilane] the Water solubility [1] was “soluble”, the “Soluble?” value ([1]; pH 3.5-4.0) was “soluble” and the “Soluble?” value ([1]; pH 3.5-4.0, listed as MPTMS (A189)) was “Yes”. For the same compound, the “Soluble?” value ([2]; 63.2 % water (wt.), pH 3.5-4.0) was “Yes”.
For `CCO[Si](CCCSSCCC[Si](OCC)(OCC)OCC)(OCC)OCC` [TESPD, bis-(3-triethoxysilylpropyl)-disulfide], the “Solubility in the water-alcohol mixture” value ([1]; procedure of comparative example 1A (4 grams isopropanol, 0.7 grams acetic acid, 96 grams water), high purity TESPD) was “not soluble”, the “Soluble?” value ([2]; 22.2 % water (wt.), pH 3.8) was “soluble and Yes” and the “Soluble?” value ([2]; 27.8 % water (wt.), pH 3.5) was “insoluble and No”.
